# Measurements from the NIST ThermoML archive (doi:10.1021/je201009c).
# Numbers after ± are expanded uncertainties.
# Test: xn = mol fraction of the nth substance listed
# Conditions: 323.15 K; for surface tension liquid-gas: Capillary rise; for viscosity / mass density: 101 kPa, Liquid; for viscosity: Falling or rolling sphere viscometry; for mass density: Vibrating tube method
smiles,measurement,setting,value
CC(=O)OCc1ccccc1 [benzyl ethanoate] + OCc1ccccc1,surface tension liquid-gas,x1 = 0.1001,36 ± 0.4 mN/m
same,surface tension liquid-gas,x1 = 0.2001,35.7 ± 0.4 mN/m
same,surface tension liquid-gas,x1 = 0.3,35.2 ± 0.4 mN/m
same,surface tension liquid-gas,x1 = 0.4001,34.8 ± 0.4 mN/m
same,surface tension liquid-gas,x1 = 0.5,34.3 ± 0.4 mN/m
same,surface tension liquid-gas,x1 = 0.6001,33.9 ± 0.4 mN/m
same,surface tension liquid-gas,x1 = 0.6999,33.5 ± 0.4 mN/m
same,surface tension liquid-gas,x1 = 0.8,33.4 ± 0.4 mN/m
same,surface tension liquid-gas,x1 = 0.9,33.3 ± 0.4 mN/m
same,surface tension liquid-gas,x1 = 1,33.2 ± 0.4 mN/m
same,viscosity,x1 = 0.05,2.45 ± 0.026 mPa·s
same,viscosity,x1 = 0.1001,2.349 ± 0.025 mPa·s
same,viscosity,x1 = 0.1502,2.232 ± 0.024 mPa·s
same,viscosity,x1 = 0.2001,2.125 ± 0.024 mPa·s
same,viscosity,x1 = 0.25,2.021 ± 0.023 mPa·s
same,viscosity,x1 = 0.3,1.925 ± 0.022 mPa·s
same,viscosity,x1 = 0.3498,1.838 ± 0.022 mPa·s
same,viscosity,x1 = 0.4001,1.756 ± 0.022 mPa·s
same,viscosity,x1 = 0.45,1.683 ± 0.021 mPa·s
same,viscosity,x1 = 0.5,1.62 ± 0.021 mPa·s
same,viscosity,x1 = 0.5501,1.561 ± 0.021 mPa·s
same,viscosity,x1 = 0.6001,1.521 ± 0.021 mPa·s
same,viscosity,x1 = 0.65,1.482 ± 0.02 mPa·s
same,viscosity,x1 = 0.6999,1.444 ± 0.02 mPa·s
same,viscosity,x1 = 0.7502,1.41 ± 0.02 mPa·s
same,viscosity,x1 = 0.8,1.387 ± 0.02 mPa·s
same,viscosity,x1 = 0.85,1.361 ± 0.02 mPa·s
same,viscosity,x1 = 0.9,1.339 ± 0.02 mPa·s
same,viscosity,x1 = 0.95,1.308 ± 0.02 mPa·s
same,viscosity,x1 = 1,1.256 ± 0.02 mPa·s
same,mass density,x1 = 0.05,1021.94 ± 0.18 kg/m3
same,mass density,x1 = 0.1001,1022.36 ± 0.19 kg/m3
same,mass density,x1 = 0.1502,1022.75 ± 0.19 kg/m3
same,mass density,x1 = 0.2001,1023.12 ± 0.19 kg/m3
same,mass density,x1 = 0.25,1023.48 ± 0.19 kg/m3
same,mass density,x1 = 0.3,1023.81 ± 0.2 kg/m3
same,mass density,x1 = 0.3498,1024.13 ± 0.2 kg/m3
same,mass density,x1 = 0.4001,1024.44 ± 0.21 kg/m3
same,mass density,x1 = 0.45,1024.73 ± 0.21 kg/m3
same,mass density,x1 = 0.5,1025.02 ± 0.22 kg/m3
same,mass density,x1 = 0.5501,1025.28 ± 0.22 kg/m3
same,mass density,x1 = 0.6001,1025.53 ± 0.23 kg/m3
same,mass density,x1 = 0.65,1025.79 ± 0.23 kg/m3
same,mass density,x1 = 0.6999,1026.04 ± 0.24 kg/m3
same,mass density,x1 = 0.7502,1026.28 ± 0.24 kg/m3
same,mass density,x1 = 0.8,1026.52 ± 0.25 kg/m3
same,mass density,x1 = 0.85,1026.77 ± 0.26 kg/m3
same,mass density,x1 = 0.9,1027.01 ± 0.26 kg/m3
same,mass density,x1 = 0.95,1027.26 ± 0.27 kg/m3
same,mass density,x1 = 1,1027.51 ± 0.28 kg/m3
